Key:
[1] = tested on: Antigen Bet v1 from pollen; test: ELISA test of allergen-deactivating efficiency of the filter medium (birch pollen antigen); type: biochemical; settings: summary of Table 1; acid on filter medium in dry state
Experimental: A carrier non-woven fabric of polyester spunbonded non-woven (weight per unit area 125 g/m^2) is finished in an allergen-deactivating manner with a mixture of lauric acid and citric acid. The allergen-deactivating doping of the carrier non-woven is carried out by applying a mixture of the active ingredients in aqueous solution to the carrier non-woven and subsequently drying the now finished non-woven fabric to thereby obtain a sample for analysis.
The size of the sample used in the test is 10 mm×10 mm.
Allergen sources used and antigens to be tested: • a) Allergen house dust mite: Antigen Der p1 from excrement • b) Allergen birch pollen: Antigen Bet v1 from pollen
Allergen sources from Allergon AB, Ängelholm, Sweden were used. […]

[2] = target: T1, Antigen Der p1 from excrement (Dermatophagoides pteronyssinus, UniProt P08176); test: ELISA test of allergen-deactivating efficiency of the filter medium (house dust mite antigen); type: biochemical; settings: text summary of Table 4; compared with the acids used according to the invention
T1 construct: tissue Allergon AB, Ängelholm, Sweden; host or cells: house dust mite excrement
T1 sequence (P08176 99-320): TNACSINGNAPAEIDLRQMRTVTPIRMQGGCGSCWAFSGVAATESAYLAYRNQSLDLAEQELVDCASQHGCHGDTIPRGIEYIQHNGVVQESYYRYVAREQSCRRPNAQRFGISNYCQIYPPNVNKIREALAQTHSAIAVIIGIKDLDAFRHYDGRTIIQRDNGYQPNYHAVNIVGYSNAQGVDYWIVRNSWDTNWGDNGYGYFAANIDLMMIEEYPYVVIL
Source text: In the examples, ELISA (enzyme-linked immunosorbent assay) is used as a method for measuring the deactivation abilities of different active ingredient compositions in respect of particular allergens.
The ELISA method can measure allergen concentrations by assessing color changes due to antigen-antibody reactions.
A carrier non-woven fabric of polyester spunbonded non-woven (weight per unit area 125 g/m^2) is finished in an allergen-deactivating manner with a mixture of lauric acid and citric acid. […]
The absorption of the microplate is established according to the specifications of the ELISA kit manufacturer using a microplate reading device at a wavelength of 405 nm and thus the allergen concentration (antigen content) of each sample is determined.
To determine the allergen-deactivating efficiency, each antigen concentration of the sample reaction solution is determined according to the specifications of the ELISA kit manufacturer using a microplate reading device at a wavelength of 405 nm.
Here, the starting concentration and the measured allergen concentration of the sample correspond to an antigen-specific concentration in ng/ml. […]

SMILES	allergen-eliminating effect [1]	immunological effect [2]
O=C(O)CC(O)(CC(=O)O)C(=O)O [citric acid]	high allergen-eliminating effect	–
O=C(O)CC(O)C(=O)O (stereo not drawn) [malic acid]	high allergen-eliminating effect	–
O=C([O-])[O-].[K+].[K+] [potassium carbonate]	–	significantly lower than that of the acids used according to the invention

— US10315146B2, “Filter medium for deactivating allergens” (Carl Freudenberg KG, priority 2015, dated 2019)
